From patent US11737462B2, “Methods for modulating plant response to environmentally-induced stress” (Howard University, priority 2012, dated 2023)

Assays:
[1] = system: rice leaves; test: uptake of salts from the incubation medium by rice leaves; format: in vivo; details: 60 μM compound, 250 mM NaCl, vs non-treated leaves
Protocol: The effect of SD-29 on modulating salt-induced stress was evaluated with rice detached leaves at room temperature (about 24° C.) for seven days in a water incubation medium. All plants received sufficient incubation medium to last the seven days. Plant A (left most) received 250 mM NaCl plus DMSO, Plant B (right of Plant A) received 60 μM SD-29 and 250 mM NaCl, and plant D received 60 μM SD-29 in the incubation medium. The incubation medium of Plant C was untreated. To examine whether the salt stress resistance comes from the differential uptake of sodium ions due to the drug treatment, the uptake of salts from the incubation medium was assayed (leaves from FIG. 5). […] The base point is indicated with 250 mM of salt line.

[2] = system: chloroplastic Cu—Zn SOD; test: native gel assay of SOD activity in rice leaves; format: in vivo; details: set up as FIG. 5: 60 μM compound, 250 mM NaCl; wild-type and RACK1 over-expressing (OX) rice
Protocol: Native gel analysis was performed on a lysate prepared from the pepper plant leaves in FIG. 8. The gel is stained for detecting enzymatic activity of different isoforms of superoxide dismutase—key enzymes that detoxify the reactive oxygen species which usually develop during the stress conditions. […] Therefore, it appears that SD-29 may help detoxify the cellular reactive oxygen species generated during the salt stress conditions. The wild-type rice plants were compared to a rice plant over-expressing rice RACK1 protein (referred to as “OX”). The OX plants were treated as described in this example for the wild-type rice plant. Native gel assay was performed as described for FIG. 8 and the experimental set up was exactly the same as described for FIG. 5.

[3] = system: tomato plants; test: salt-induced stress in tomato plants; format: in vivo; details: 60 μM compound plus 250 mM NaCl, five days, about 24° C.
Protocol: In the examples described herein, the test compounds (e.g., SD-29 or analogs thereof) were dissolved in dimethyl sulfoxide (DMSO) to provide a 20 mM concentration. Micromolar concentrations were then prepared as needed by addition to the water incubation media. Unless stated otherwise, the experimental plants were incubated with the roots immersed in the water containing the compound. The control plants received only DMSO in the same amount as that of the compound. Salt-induced stress was evaluated with tomato plants at room temperature (about 24° C.) for five days. The plants received sufficient incubation media to last through the five day experiment. Plant A received 60 μM SD-29 plus 250 mM NaCl and plant B received 250 mM NaCl (plus DMSO in the same volume as the volume of SD-29 received by plant A) in the incubation medium.

[4] = system: RACK1A:GFP; test: RACK1A:GFP expression in transformed Arabidopsis plants; format: in vivo, Arabidopsis thaliana; details: 60 μM compound with 250 mM salt for 6 hours
Protocol: Arabidopsis plants transformed with a RAC[…]:GFP construct were analyzed to determine the effect of SD-29 on expression of RAC[…]. The experimental plant was treated with 60 μM SD-29 with 250 mM salt for 6 hours. Controls were treated with and without salt. […] It is quite possible that downregulation of RAC[…] expression by SD-29 may be the cellular mechanism that allow the plants to withstand salt stress.

[5] = system: Arabidopsis protoplasts; test: H2O2-induced reactive oxygen species in Arabidopsis protoplasts (H2DCF staining); format: cell-based, Arabidopsis thaliana; details: H2O2 for 2 hours, 60 μM compound, H2DCF dye
Protocol: In this example, to examine whether SD-29 can prevent generation of reactive oxygen species (ROS) under stress, the effect of SD-29 on H2O2 treated Arabidopsis protoplasts was evaluated. Protoplasts were treated with H2O2 for 2 hours with and without 60 μM SD-29. An untreated control was also evaluated. The protoplasts were stained with reactive oxygen species visualization dye H2DCF that fluoresces in the presence of ROS and the treated protoplasts were evaluated using fluorescent microscopy.

[6] = system: rice detached leaves; test: salt-induced stress in rice detached leaves; format: in vivo; details: seven days
Protocol: In the examples described herein, the test compounds (e.g., SD-29 or analogs thereof) were dissolved in dimethyl sulfoxide (DMSO) to provide a 20 mM concentration. Micromolar concentrations were then prepared as needed by addition to the water incubation media. Unless stated otherwise, the experimental plants were incubated with the roots immersed in the water containing the compound. The control plants received only DMSO in the same amount as that of the compound. The effect of SD-29 on modulating salt-induced stress was evaluated with rice detached leaves at room temperature (about 24° C.) for seven days in a water incubation medium. All plants received sufficient incubation medium to last the seven days. Plant A (left most) received 250 mM NaCl plus DMSO, Plant B (right of Plant A) received 60 μM SD-29 and 250 mM NaCl, and plant D received 60 μM SD-29 in the incubation medium. The incubation medium of Plant C was untreated. The rice plant leaves were photographed directly after seven days. […] Much of the chlorophyll of plant A (salt treatment alone) was degraded, while SD-29 treated leaves (Leaf B) maintained the chlorophyll level even in the presence of the same amount of salt.

[7] = system: MnSOD; test: native gel assay of Mn-SOD activity in rice during salt stress; format: in vivo; details: salt stress conditions, NaCN in gel activity buffer
[8] = system: Arabidopsis leaves; test: H2O2 accumulation in Arabidopsis leaves (DAB staining); format: in vivo, Arabidopsis thaliana; details: 5 μM H2O2 and DAB overnight, vs DMSO only
Protocol: Arabidopsis leaves were treated with 5 μM H2O2 and 3,3′-diaminobenzidene (DAB) with and without SD-29 overnight. A control included DMSO only (included in the same volume as SD-29). The brown spots indicate sites of accumulation of H2O2.

[9] = target: T1, Arabidopsis RACK1A (Arabidopsis thaliana, UniProt O24456); test: western blot of RACK1A tyrosine phosphorylation in Arabidopsis leaves under heat stress; format: in vivo
T1 construct: from tissue; host or cells: Arabidopsis plant leaves
Protocol: In the examples described herein, the test compounds (e.g., SD-29 or analogs thereof) were dissolved in dimethyl sulfoxide (DMSO) to provide a 20 mM concentration. Micromolar concentrations were then prepared as needed by addition to the water incubation media. Unless stated otherwise, the experimental plants were incubated with the roots immersed in the water containing the compound. The control plants received only DMSO in the same amount as that of the compound. In the second group (FIG. 3), Arabidopsis plants were held at 42° C. for six hours and compared to control plants held at about 22° C. The Arabidopsis plant in the experimental group was treated with 60 μM SD-29 in water. A control plant received water and DMSO. Lysates were then prepared from the leaves and western blots were performed using immobilized mouse anti-pTRY and Arabidopsis-anti RAC[…]. […] A similar experiment was carried out using analog SD-29-9 and SD-29 at 42° C. for three hours. […] A western blot was then performed using an antibody that was raised targeting phosphorylated […] residue of RAC[…].

T1 sequence (O24456 whole entry): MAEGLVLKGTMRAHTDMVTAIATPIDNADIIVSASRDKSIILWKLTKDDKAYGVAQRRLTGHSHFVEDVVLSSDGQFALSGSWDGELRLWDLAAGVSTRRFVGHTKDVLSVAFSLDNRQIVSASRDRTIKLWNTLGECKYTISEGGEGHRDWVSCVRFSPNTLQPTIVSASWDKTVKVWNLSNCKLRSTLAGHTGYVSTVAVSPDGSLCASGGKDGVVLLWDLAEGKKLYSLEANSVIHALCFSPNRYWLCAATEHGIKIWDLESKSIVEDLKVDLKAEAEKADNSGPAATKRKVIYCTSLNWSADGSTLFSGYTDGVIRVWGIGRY

## Nn1c(S)nnc1-c1ccc(F)cc1 [SD-29]
[1]
  sodium ions remaining in the incubation medium: more sodium ions remained in the incubation medium
[2]
  chloroplastic Cu—Zn SOD activity in rice leaves: upregulates chloroplastic Cu—Zn SOD activity
[3]
  tomato plant condition in high salt: thrived (did not wilt) in the high salt conditions
[4]
  RACK1A:GFP expression: down regulation of RACK1A:GFP expression
[5]
  accumulation of H2O2-induced reactive oxygen species in protoplasts: prevented accumulation of H2O2-induced reactive oxygen species
[6]; 60 μM compound and 250 mM NaCl, about 24° C.
  salt stress-induced chlorosis of rice leaves: protect the rice leaves from salt stress-induced chlorosis
[6]; 60 μM compound without salt, vs untreated Leaf C
  rice leaf appearance with compound alone: showed little difference from control Leaf C
[7]
  MnSOD activity in rice: upregulates MnSOD activity
[8]
  H2O2 accumulation in leaves: prevents H2O2 accumulation in the leaves
[9]; 60 μM, 42° C. for six hours, western blot of leaf lysates
  Arabidopsis RACK1A tyrosine phosphorylation during heat stress: prevents Arabidopsis RACK1A tyrosine phosphorylation
[9]; 42° C. for three hours, western blot, antibody to phosphorylated Y248
  Arabidopsis RACK1A tyrosine phosphorylation at increased temperature: effective to prevent Arabidopsis RACK1A tyrosine phosphorylation at increased temperature
